Assay results published in patent publication US12653901B2, “Anti-EDB antibodies and antibody-drug conjugates” (Pfizer Inc., priority 2016, dated 2026).
Entries after “also recorded” stand apart in the source; their conditions may differ. Like-named read-outs stand apart in the source and are kept apart here. Where a SMILES comes first, the peptide text is derived from it. [ ]: non-standard residue; d: D form. The star is where a group is joined. Dolaproine = CO[C@@H]([C@@H]1CCCN1)[C@@H](C)C(=O)O; Dil = CC[C@H](C)[C@H](NC)[C@@H](CC(=O)O)OC; Doe = c1ccc(C[C@H](N*)c2nccs2)cc1; Aib = CC(C)(N)C(=O)O

What was measured:
HT29 cells = test: In vitro cytotoxicity, HT29; type: cell-based, human; conditions: for IC50: Homo sapiens; for Avg IC50: HT29 (EDB+ FN negative), four days, ng/ml of antibody
Protocol: (§1) Proliferating WI38-VA13 or HT29 cells were harvested from culture flasks with non-enzymatic cell dissociation buffer and cultured overnight in 96-well plates (Corning) at 1000 cells/well in a humidified chamber (37° C., 5% CO2). The next day, cells were treated with EDB ADCs or isotype control non-EDB-binding ADCs by adding 50 μl of 3× stocks in duplicate at 10 concentrations. In some experiments, cells were plated at 1500 cells/well and treated the same day. Cells were then incubated with EDB ADCs or isotype control non-EDB-binding ADCs for four days. On harvest day, 50 μl of Cell Titer Glo (Promega) was added to the cells and incubated 0.5 hours at room temperature. Luminescence was measured on a Victor plate reader (Perkin Elmer, Waltham, MA). Relative cell viability was determined as a percentage of untreated control wells. IC50 values were calculated using four-parameter logistic model #203 with XLfit v4.2 (IDBS).

WI38-VA13 cells = test: In vitro cytotoxicity, WI38-VA13; type: cell-based, human; conditions: for IC50: Homo sapiens
Protocol: as §1

PDX-PAX-12534 = test: In vivo efficacy, PDX-PAX-12534 pancreatic PDX; parameters: species or system mouse; conditions: 0.3, 1 and 3 mg/kg
Text: (§2) To generate PDX models, tumors were collected from donor animals and tumor fragments approximately 3×3 mm were implanted subcutaneously into the flank of female athymic nude mice (for PDX-NSX-11122 model) or NOD SCID mice (for PDX-PAX-13565 and PDX-PAX-12534 models) by using a 10 gage trocar. When average tumor volume reached approximately 160 to 260 mm^3 the mice were randomized into treatment groups, with 7-10 mice in each group. ADCs or vehicle (PBS) dosing regime and administration route as well as tumor measurement procedures are the same as described above for CLX models. […] Tumor growth inhibition is plotted as an average of tumor size±SEM.

EMT6 syngeneic tumors = test: Immune response in treated EMT6 syngeneic tumors; type: in vivo, mouse
Ramos = test: In vivo efficacy, Ramos lymphoma CLX; parameters: species or system mouse; conditions: 1 and 3 mg/kg
Text: (§3) To generate CLX models, 8×10^6 to 10×10^6 cells of H-1975, HT29, or Ramos tumor lines were implanted into female athymic nude mice subcutaneously. Ramos and H-1975 cells for inoculation were suspended in 50% and 100% […]® (BD Biosciences, biological call culture substrate), respectively. For the Ramos model, the animals received whole body irradiation (4 Gy) before cell inoculation to facilitate the establishment of tumors. When the average tumor volume reached approximately 160 to 320 mm^3, the animals were randomized into treatment groups, with 8-10 mice in each group. ADCs or vehicle (PBS) were administered intravenously on day 0 and then the animals were dosed once every 4 days for 4 to 8 doses. Tumors were measured once or twice weekly and tumor volume was calculated as volume (mm^3)[…](width×width×length)/2.

H-1975 = test: In vivo efficacy, H-1975 NSCLC CLX; parameters: species or system mouse; conditions: intravenous, once every 4 days, doses as in value
Text: as §3

PDX-NSX-11122 = test: In vivo efficacy, PDX-NSX-11122 NSCLC PDX; parameters: species or system mouse
Text: as §2

HT29 = test: In vivo efficacy, HT29 colon CLX; parameters: species or system mouse; conditions: 3 mg/kg
Text: as §3

PDX-PAX-13565 = test: In vivo efficacy, PDX-PAX-13565 pancreatic PDX; parameters: species or system mouse; conditions: 0.3, 1 and 3 mg/kg
Text: as §2

[1] = molecular target: recombinant cynomolgus monkey 7-EDB-89; test: SPR binding kinetics to cynomolgus monkey 7-EDB-89
Sequence of recombinant cynomolgus monkey 7-EDB-89 (as listed by the source): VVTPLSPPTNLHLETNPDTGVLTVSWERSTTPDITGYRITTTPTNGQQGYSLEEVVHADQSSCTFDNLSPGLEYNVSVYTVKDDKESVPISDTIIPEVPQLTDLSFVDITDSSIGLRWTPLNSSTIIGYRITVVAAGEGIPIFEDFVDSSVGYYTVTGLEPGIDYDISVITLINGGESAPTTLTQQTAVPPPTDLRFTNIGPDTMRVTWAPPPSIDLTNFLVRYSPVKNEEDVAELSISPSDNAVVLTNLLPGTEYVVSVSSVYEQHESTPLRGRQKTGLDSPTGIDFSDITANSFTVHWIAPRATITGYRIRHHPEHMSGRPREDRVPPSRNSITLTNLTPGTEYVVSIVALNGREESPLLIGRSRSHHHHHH
Protocol: Binding is detected by surface SPR of laser light refracting from the surface. Analysis of the signal kinetics on-rate (ka) and off-rate (kd), allows the discrimination between non-specific and specific interactions.
The running and sample buffer used was HBS-EP+ buffer (0.01M HEPES, 0.15M NaCl, 3 mM EDTA, and 0.05% v/v surfactant P20 pH7.4). […] All SPR assays were performed at 25° C. with a data collection rate of 1 Hz using a BIACORE® (Cytiva; surface plasmon resonance (SPR) system) T200 instrument (GE Healthcare). The resulting sensorgrams were double referenced (Myszka, D. G., J. Mol. Recognit., 12:279-284, 1999) using both a control surface and buffer injections. The rate constants were determined by fitting the data to a 1:1 Langmuir model with BIACORE® (Cytiva; surface plasmon resonance (SPR) system) T200 evaluation software v2.0 and the equation KD=kd/ka. Each experiment was run in duplicate and the average KD was determined.

[2] = HT-29, unconjugated payload, HT29, read-out: Avg IC50
[3] = WI-38 VA13, unconjugated payload, WI38-VA13, read-out: Avg IC50

Molecule `CC[C@H](C)[C@@H]([C@@H](CC(=O)N1CCC[C@H]1[C@H](OC)[C@@H](C)C(=O)N[C@@H](Cc1ccccc1)c1nccs1)OC)N(C)C(=O)[C@@H](NC(=O)C(C)(C)N)C(C)C` [Payload-0101] (H-[Aib]V[Dil][Dolaproine]-Doe) has an IC50 (HT29 cells; HT-29, read-out: Avg IC50) of 90 pM and an IC50 (WI38-VA13 cells; WI-38 VA13, read-out: Avg IC50) of 392 pM.

For `Cc1c[nH]c2c1[C@@]13C[C@@H]1CN(C(=O)C14CC5(C(=O)N6C[C@H]7C[C@@]78C6=CC(=O)c6[nH]cc(C)c68)CC15C4)C3=CC2=O` (stereo partly drawn) [Payload-0326], the IC50 (HT29 cells; HT-29, read-out: Avg IC50) was 49 pM and the IC50 (WI38-VA13 cells; WI-38 VA13, read-out: Avg IC50) was under 1 pM.

Molecule `CC[C@H](C)[C@@H]([C@@H](CC(=O)N1CCC[C@H]1[C@H](OC)[C@@H](C)C(=O)N[C@@H](Cc1ccc(N)cc1)c1nccs1)OC)N(C)C(=O)[C@@H](NC(=O)C(C)(C)N(C)C)C(C)C` [Payload-1569] has an IC50 (HT29 cells; [2]) of 74 pM and an IC50 (WI38-VA13 cells; [3]) of 269 pM.

Molecule `CC[C@H](C)[C@@H]([C@@H](CC(=O)N1CCC[C@H]1[C@H](OC)[C@@H](C)C(=O)N[C@@H](Cc1ccc(CS)cc1)c1nccs1)OC)N(C)C(=O)[C@@H](NC(=O)C(C)(C)N(C)C)C(C)C` [Payload-4574] has an IC50 (HT29 cells; HT-29, read-out: Avg IC50) of 3650 pM and an IC50 (WI38-VA13 cells; WI-38 VA13, read-out: Avg IC50) of 3540 pM.

Work on `CC[C@H](C)[C@@H]([C@@H](CC(=O)N1CCC[C@H]1[C@H](OC)[C@@H](C)C(=O)N[C@@H](Cc1ccc(N)cc1)c1nccs1)OC)N(C)C(=O)[C@@H](NC(=O)[C@]1(C)CCCN1C)C(C)C` [Payload-9411] yielded an IC50 (HT29 cells; [2]) of 197 pM and an IC50 (WI38-VA13 cells; [3]) of 519 pM.

Work on `COc1cc2cc(c1Cl)N(C)C(=O)C[C@H](OC(=O)[C@H](C)N(C)C(=O)CCS)[C@]1(C)O[C@H]1[C@H](C)[C@@H]1C[C@@](O)(NC(=O)O1)[C@H](OC)/C=C/C=C(\C)C2` [Payload-DM1, mertansine, reference compound] yielded an IC50 (HT29 cells; HT-29, read-out: Avg IC50) of 2630 pM and an IC50 (WI38-VA13 cells; WI-38 VA13, read-out: Avg IC50) of 3060 pM.

For “ADC1: EDB-L19 antibody conventionally conjugated via cysteine residues to auristatin 0101 with vc linker”, the anti-tumor efficacy (PDX-PAX-12534) was “tumor regression in a dose dependent manner”, the “expression of PDL1” value (EMT6 syngeneic tumors; treated tumors) was “increased expression of PDL1” and the “infiltration of CD3+ T cells” value (EMT6 syngeneic tumors; treated tumors vs. vehicle controls) was “Increased infiltration of CD3+ T cells”. The “Avg IC50” value (HT29 cells) was 15,346 ng/ml, the anti-tumor activity (Ramos) was “tumor regression at the 3 mg/kg dose in a dose dependent manner” and the anti-tumor activity (H-1975; listed as EDB-L19-vc-0101) was “tumor regression in a dose dependent manner at 3 mg/kg, and at as low as 1.5 mg/kg; also recorded: tumor regression at the highest doses evaluated”. The anti-tumor activity (PDX-NSX-11122; 1 mg/kg) was “delayed tumor growth”, the anti-tumor activity (PDX-NSX-11122; 3 mg/kg) was “complete regressions” and the anti-tumor activity (PDX-NSX-11122; intravenous, once every 4 days, doses as in value, listed as EDB-L19-vc-0101) was “tumor regression in a dose dependent manner at 3 mg/kg and 1.5 mg/kg; also recorded: greater efficacy as compared to isotype negative control ADCs and ADCs that were generated using a disulfide linker”. For the same molecule, the anti-tumor activity (HT29) was “tumor regression at the 3 mg/kg dose over time” and the anti-tumor efficacy (PDX-PAX-13565) was “tumor regression in a dose dependent manner”.

In the case of “ADC5: EDB-L19 antibody conjugated to DM1 with disulfide (diS) linker”, the “Avg IC50” value (HT29 cells) is reported as 237 ng/mL and the “Avg IC50” value (WI38-VA13 cells; WI38-VA13 (EDB+ FN positive), four days, ng/ml of antibody) is reported as 0.268 µg/mL.

For “ADC10: EDB-L19 antibody conjugated to auristatin 1569 with vc linker”, the “Avg IC50” value (HT29 cells) was 5,702 ng/ml and the anti-tumor activity (H-1975) was “tumor regression in a dose dependent manner”.

For “Ab1: L19 human monoclonal IgG1 antibody binding EDB; HC SEQ ID NO: 8, LC SEQ ID NO: 15”, the Kd [1] was 188000 pM, the ka [1] was 560000 M⁻¹ s⁻¹ and the kd [1] was 0.105 s⁻¹.
